From the supplement of paper PMC10307832

Experiments:
Test in all cases: relative viability (nuclei count vs DMSO), 5 days (fraction); higher = more cells survive
Doramapimod + Olaparib = compound: Cc1ccc(-n2nc(C(C)(C)C)cc2NC(=O)Nc2ccc(OCCN3CCOCC3)c3ccccc23)cc1 [Doramapimod] + O=C(c1cc(Cc2n[nH]c(=O)c3ccccc23)ccc1F)N1CCN(C(=O)C2CC2)CC1 [Olaparib] (partner 8 µM)
How it was run: (§1)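 Each reported value is a median over duplicate plates. It expresses relative viability: treated-well nuclei count divided by vehicle-well nuclei count. Lung cancer cell lines in 1536-well plates were dosed by pin tool a day after seeding, alone with one drug or with a fixed anchor-drug dose plus five library-drug doses (not always all listed) in √10 steps, and nuclei were counted after 5 days.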

Doramapimod + Lapatinib = compound: Cc1ccc(-n2nc(C(C)(C)C)cc2NC(=O)Nc2ccc(OCCN3CCOCC3)c3ccccc23)cc1 [Doramapimod] + CS(=O)(=O)CCNCc1ccc(-c2ccc3ncnc(Nc4ccc(OCc5cccc(F)c5)c(Cl)c4)c3c2)o1 [Lapatinib] (partner 2 µM)
How it was run: as §1

IPA-3 + Pictilisib = compound: C1=CC=C2C(=C1)C=CC(=C2SSC3=C(C=CC4=CC=CC=C43)O)O [IPA-3] + CS(=O)(=O)N1CCN(Cc2cc3nc(-c4cccc5[nH]ncc45)nc(N4CCOCC4)c3s2)CC1 [Pictilisib] (partner 1 µM)
How it was run: as §1

IPA-3 + Palbociclib = compound: C1=CC=C2C(=C1)C=CC(=C2SSC3=C(C=CC4=CC=CC=C43)O)O [IPA-3] + CC(=O)c1c(C)c2cnc(Nc3ccc(N4CCNCC4)cn3)nc2n(C2CCCC2)c1=O [Palbociclib] (partner 0.5 µM)
How it was run: as §1

Cell Line | relative viability (Doramapimod + Olaparib; first compound 0.02 µM) | relative viability (Doramapimod + Olaparib; first compound 0.06325 µM) | relative viability (Doramapimod + Olaparib; first compound 0.2 µM) | relative viability (Doramapimod + Olaparib; first compound 0.6325 µM) | relative viability (Doramapimod + Olaparib; first compound 2 µM) | relative viability (Doramapimod + Lapatinib; first compound 0.02 µM) | relative viability (Doramapimod + Lapatinib; first compound 0.06325 µM) | relative viability (Doramapimod + Lapatinib; first compound 0.2 µM) | relative viability (Doramapimod + Lapatinib; first compound 0.6325 µM) | relative viability (Doramapimod + Lapatinib; first compound 2 µM) | relative viability (IPA-3 + Pictilisib; first compound 0.2 µM) | relative viability (IPA-3 + Pictilisib; first compound 0.6325 µM) | relative viability (IPA-3 + Pictilisib; first compound 2 µM) | relative viability (IPA-3 + Pictilisib; first compound 6.325 µM) | relative viability (IPA-3 + Pictilisib; first compound 20 µM) | relative viability (IPA-3 + Palbociclib; first compound 0.2 µM) | relative viability (IPA-3 + Palbociclib; first compound 0.6325 µM) | relative viability (IPA-3 + Palbociclib; first compound 2 µM) | relative viability (IPA-3 + Palbociclib; first compound 6.325 µM) | relative viability (IPA-3 + Palbociclib; first compound 20 µM)
NCI-H1650 | 0.82 | 0.831 | 0.682 | 0.874 | 0.884 | 0.665 | 0.736 | 0.795 | 0.247 | 0.786 | 0.811 | 0.391 | 0.569 | 0.551 | 0.736 | 0.472 | 0.314 | 0.328 | 0.311 | 0.327
NCI-H1355 | 0.76 | 0.732 | 0.708 | 0.721 | 0.7 | 0.972 | 0.992 | 0.964 | 0.95 | 0.952 | 0.396 | 0.396 | 0.466 | 0.484 | 0.401 | 0.445 | 0.395 | 0.386 | 0.405 | 0.424
NCI-H1915 | 0.285 | 0.287 | 0.252 | 0.254 | 0.233 | 0.973 | 1.1 | 1.01 | 0.995 | 0.844 | 0.956 | 0.987 | 0.903 | 0.966 | 0.933 | 0.498 | 0.514 | 0.534 | 0.495 | 0.54
BEN | 1.05 | 1.1 | 1.01 | 0.901 | 0.967 | 0.728 | 0.687 | 0.746 | 0.475 | 0.717 | 0.6 | 0.596 | 0.66 | 0.697 | 0.601 | 0.432 | 0.471 | 0.43 | 0.532 | 0.457
